Converted amounts (≈) assume the structure as drawn.
Legend:
Assay type in all cases: cell-based
A. fumigatus MF4839 = experiment: MIC, inhibitor dilution assay in microtiter format, A. fumigatus MF4839; conditions: Aspergillus fumigatus; A. fumigatus MF4839, 42 hours, 28° C.; read-out: Minimum Inhibitory Concentration
Protocol: (§1) The compounds are particularly active towards filamentous fungi and yeasts including Candida albicans and Crypt neoformans. The sensitivity of filamentous fungi and yeast was determined using inhibitor dilution assays in microtiter format. The compounds were dissolved in DMSO at 2 mg/ml and serially diluted in 0.1M phosphate buffer, pH 7.0 in the microtiter dish from 100 to 0.006 μg/ml. A standardized spore suspension for testing the filamentous fungi was prepared by inoculating Antibiotic Medium #3 containing 1.5% agar with spores such that 1.5×10^3 colony forming units were added per well. The microtiter wells were filled with 50 μl of buffer containing compound and 50 μl of inoculated medium. The sensitivity of yeasts was determined by inoculating yeast nitrogen base containing 1% dextrose (YNB/G) with aliquots of an overnight yeast culture grown in yeast morphology (YM) media at 35° C. and diluting in YNB/G to yield a final concentration of 1.5-7.5×10^3 colony forming units/well. One hundred fifty μl of inoculated media was added per well. To test the sensitivity of yeast, compound was solubilized in 10 percent aqueous DMSO at 2.56 mg/ml. The compound was diluted serially in YNB/G from 128 to 0.06 μg/ml. The wells were filled with 150 μl of drug containing media. […]

A. flavus MF383 = experiment: MIC, inhibitor dilution assay in microtiter format, A. flavus MF383; conditions: Aspergillus flavus; A. flavus MF383, 42 hours, 28° C.; read-out: Minimum Inhibitory Concentration
Protocol: as §1

A. niger MF442 = experiment: MIC, inhibitor dilution assay in microtiter format, A. niger MF442; conditions: Aspergillus niger; A. niger MF442, 42 hours, 28° C.; read-out: Minimum Inhibitory Concentration
Protocol: as §1

Fus. oxysporum MF4014 = experiment: MIC, inhibitor dilution assay in microtiter format, Fus. oxysporum MF4014; conditions: Fusarium oxysporum; Fus. oxysporum MF4014, 42 hours, 28° C.; read-out: Minimum Inhibitory Concentration
Protocol: as §1

Pen. italicum MF2819 = experiment: MIC, inhibitor dilution assay in microtiter format, Pen. italicum MF2819; conditions: Penicillium italicum; Pen. italicum MF2819, 42 hours, 28° C.; read-out: Minimum Inhibitory Concentration
Protocol: as §1

Coch. miyabeanus MF4626 = experiment: MIC, inhibitor dilution assay in microtiter format, Coch. miyabeanus MF4626; conditions: Bipolaris oryzae, MF4626, 42 h, read-out: Minimum Inhibitory Concentration
Protocol: as §1

T. Mentagrophytes MF4864 = experiment: MIC, inhibitor dilution assay in microtiter format, T. Mentagrophytes MF4864; conditions: Trichophyton mentagrophytes; T. Mentagrophytes MF4864, 42 hours, 28° C.; read-out: Minimum Inhibitory Concentration
Protocol: as §1

C. albicans MY1055 = experiment: MIC and MFC, inhibitor dilution assay in microtiter format, C. albicans MY1055; conditions: Candida albicans; for MIC: C. albicans MY1055, 24 hours, 28° C., read-out: Minimum Inhibitory Concentration; for MFC: C. albicans MY1055, no growth or no more than three colonies, read-out: Minimum Fungicidal Concentration
Protocol: (§2) The compounds are particularly active towards filamentous fungi and yeasts including Candida albicans and Crypt neoformans. The sensitivity of filamentous fungi and yeast was determined using inhibitor dilution assays in microtiter format. The compounds were dissolved in DMSO at 2 mg/ml and serially diluted in 0.1M phosphate buffer, pH 7.0 in the microtiter dish from 100 to 0.006 μg/ml. A standardized spore suspension for testing the filamentous fungi was prepared by inoculating Antibiotic Medium #3 containing 1.5% agar with spores such that 1.5×10^3 colony forming units were added per well. The microtiter wells were filled with 50 μl of buffer containing compound and 50 μl of inoculated medium. The sensitivity of yeasts was determined by inoculating yeast nitrogen base containing 1% dextrose (YNB/G) with aliquots of an overnight yeast culture grown in yeast morphology (YM) media at 35° C. and diluting in YNB/G to yield a final concentration of 1.5-7.5×10^3 colony forming units/well. One hundred fifty μl of inoculated media was added per well. To test the sensitivity of yeast, compound was solubilized in 10 percent aqueous DMSO at 2.56 mg/ml. The compound was diluted serially in YNB/G from 128 to 0.06 μg/ml. The wells were filled with 150 μl of drug containing media. The minimum inhibitory concentration (MIC) is defined as the lowest concentration to prevent visible growth after an incubation for 42 hours, 28° C. for the filamentous fungi and 24 hours, 28° C. for the yeasts. […] Representative of the antifungal activity are the minimum inhibitory concentration and minimum fungicidal concentration data shown below: […]

C. tropicalis MY1012 = experiment: MIC and MFC, inhibitor dilution assay in microtiter format, C. tropicalis MY1012; conditions: Candida tropicalis; for MIC: C. tropicalis MY1012, 24 hours, 28° C., read-out: Minimum Inhibitory Concentration; for MFC: C. tropicalis MY1012, no growth or no more than three colonies, read-out: Minimum Fungicidal Concentration
Protocol: as §2

C. parapsilosis MY1010 = experiment: MIC and MFC, inhibitor dilution assay in microtiter format, C. parapsilosis MY1010; conditions: Lodderomyces parapsilosis; for MIC: C. parapsilosis MY1010, 24 hours, 28° C., read-out: Minimum Inhibitory Concentration; for MFC: C. parapsilosis MY1010, no growth or no more than three colonies, read-out: Minimum Fungicidal Concentration
Protocol: as §2

Crypt. neoformans MY1051 = experiment: MIC and MFC, inhibitor dilution assay in microtiter format, Crypt. neoformans MY1051; conditions: Cryptococcus neoformans; for MFC: Crypt neoformans MY1051, no growth or no more than three colonies, read-out: Minimum Fungicidal Concentration; for MIC: Crypt. neoformans MY1051, 24 hours, 28° C., read-out: Minimum Inhibitory Concentration
Protocol: as §2

Structure (SMILES): C=C(CCC12OC(C(=O)O)C(O)(C(=O)O)C(C(=O)O)(O1)C(OC(=O)C=CC(C)CC(C)CC)C2O)C(OC(C)=O)C(C)Cc1ccccc1 (centres unmarked) [Compound A]
- MIC (A. fumigatus MF4839): 6.2 µg/mL (≈ 8.98 µM)
- MIC (A. flavus MF383): 6.2 µg/mL (≈ 8.98 µM)
- MIC (A. niger MF442): 25 µg/mL (≈ 36.2 µM)
- MIC (Fus. oxysporum MF4014): > 100 µg/mL
- MIC (Pen. italicum MF2819): 6.2 µg/mL (≈ 8.98 µM)
- MIC (Coch. miyabeanus MF4626): 1.6 µg/mL (≈ 2.32 µM)
- MIC (T. Mentagrophytes MF4864): 4 µg/mL (≈ 5.79 µM)
- MIC (C. albicans MY1055): 8 µg/mL (≈ 11.6 µM)
- MFC (C. albicans MY1055): 4 µg/mL (≈ 5.79 µM)
- MIC (C. tropicalis MY1012): 4 µg/mL (≈ 5.79 µM)
- MFC (C. tropicalis MY1012): 2 µg/mL (≈ 2.9 µM)
- MIC (C. parapsilosis MY1010): 8 µg/mL (≈ 11.6 µM)
- MFC (C. parapsilosis MY1010): 2 µg/mL (≈ 2.9 µM)
- MFC (Crypt. neoformans MY1051): 0.5 µg/mL (≈ 0.724 µM)
- MIC (Crypt. neoformans MY1051): 1 µg/mL (≈ 1.45 µM)

Structure (SMILES): C=C(CCC12OC(C(=O)OC)C(O)(C(=O)OC)C(C(=O)OC)(O1)C(OC(=O)C=CC(C)CC(C)CC)C2O)C(OC(C)=O)C(C)Cc1ccccc1 (centres unmarked) [Compound B]
- MIC (A. fumigatus MF4839): > 128 µg/mL
- MIC (A. flavus MF383): > 128 µg/mL
- MIC (T. Mentagrophytes MF4864): > 128 µg/mL
- MIC (C. albicans MY1055): > 128 µg/mL
- MFC (C. albicans MY1055): > 128 µg/mL
- MIC (C. tropicalis MY1012): > 128 µg/mL
- MFC (C. tropicalis MY1012): > 128 µg/mL
- MIC (C. parapsilosis MY1010): > 128 µg/mL
- MFC (C. parapsilosis MY1010): > 128 µg/mL
- MFC (Crypt. neoformans MY1051): > 128 µg/mL
- MIC (Crypt. neoformans MY1051): > 128 µg/mL
